Values quoted from earlier work, collected in paper PMC6804253, “Predicting and Experimentally Validating Hot-Spot Residues at Protein–Protein Interfaces” (ACS Chemical Biology, 2019).
Where two headings read alike, the source gives them in different places.

System: PPIs of the SKEMPI data set (by PDBID)
Conditions: ref SKEMPI, cited from earlier work; for sk_class (class of SKEMPI experimental ΔΔG): class by ΔΔG threshold 4.184 kJ/mol; for sk_ddG_kJ (SKEMPI experimental ΔΔG) / sk_ddG_kJ / sk_ddG_kJ (SKEMPI experimental ΔΔG, mutation to alanine): single mutation to alanine; for sk_ddG_kJ: SKEMPI experimental ΔΔG of binding; for sk_class: class of the SKEMPI experimental ΔΔG; for sk_ddG_kJ (SKEMPI experimental ΔΔG, mutation to alanine): residue group in r_group
[1] = sheet sortedByGroup, r_group FAMILYVW
[2] = complex given by PDBID, residue group SQNT

Molecule	sk_ddG_kJ (PPI given by PDBID)	sk_class	also measured
1VFB IC124A	–	–	sk_class (class of SKEMPI experimental ΔΔG): Positive (positive (a hot residue) ΔΔG ≥ 4.184 kJ/mol)
1DQJ YC20A	–	–	sk_ddG_kJ (SKEMPI experimental ΔΔG) [1]: 13.77 kJ
1GC1 NC30A	0.71 kJ	Neutral (neutral (little effect) 4.184 kJ/mol < ΔΔG > −4.184 kJ/mol)	–
1A22 PA59A	–	–	sk_class (class of SKEMPI experimental ΔΔG): Neutral (neutral (little effect) 4.184 kJ/mol < ΔΔG > −4.184 kJ/mol); sk_ddG_kJ (SKEMPI experimental ΔΔG, mutation to alanine) (complex given by PDBID): 1.59 kJ
1VFB LC129A	–	–	sk_class (class of SKEMPI experimental ΔΔG): Neutral (neutral (little effect) 4.184 kJ/mol < ΔΔG > −4.184 kJ/mol)
1VFB SC24A	3.56 kJ	Neutral (neutral (little effect) 4.184 kJ/mol < ΔΔG > −4.184 kJ/mol)	–
1GC1 SC31A	0.46 kJ	Neutral (neutral (little effect) 4.184 kJ/mol < ΔΔG > −4.184 kJ/mol)	–
1A22 PA48A	–	–	sk_class (class of SKEMPI experimental ΔΔG): Neutral (neutral (little effect) 4.184 kJ/mol < ΔΔG > −4.184 kJ/mol); sk_ddG_kJ (SKEMPI experimental ΔΔG, mutation to alanine) (complex given by PDBID): 1.67 kJ
1VFB YC23A	–	–	sk_class (class of SKEMPI experimental ΔΔG): Neutral (neutral (little effect) 4.184 kJ/mol < ΔΔG > −4.184 kJ/mol)
1GC1 QC64A	1.84 kJ	Neutral (neutral (little effect) 4.184 kJ/mol < ΔΔG > −4.184 kJ/mol)	–
1DQJ WC62A	–	–	sk_ddG_kJ (SKEMPI experimental ΔΔG) [1]: 3.18 kJ
1GC1 TC15A	1.34 kJ	Neutral (neutral (little effect) 4.184 kJ/mol < ΔΔG > −4.184 kJ/mol)	–
1A22 PA61A	–	–	sk_class (class of SKEMPI experimental ΔΔG): Positive (positive (a hot residue) ΔΔG ≥ 4.184 kJ/mol); sk_ddG_kJ (SKEMPI experimental ΔΔG, mutation to alanine) (complex given by PDBID): 5.02 kJ
1GC1 QC33A	0.46 kJ	Neutral (neutral (little effect) 4.184 kJ/mol < ΔΔG > −4.184 kJ/mol)	–
1DQJ DC101A	–	–	sk_ddG_kJ (complex by PDBID): 6.07 kJ
1GC1 NC32A	0.75 kJ	Neutral (neutral (little effect) 4.184 kJ/mol < ΔΔG > −4.184 kJ/mol)	–
1DQJ WC63A	–	–	sk_ddG_kJ (SKEMPI experimental ΔΔG) [1]: 5.65 kJ
1GC1 QC20A	-0.08 kJ	Neutral (neutral (little effect) 4.184 kJ/mol < ΔΔG > −4.184 kJ/mol)	–
1GC1 NC73A	-0.46 kJ	Neutral (neutral (little effect) 4.184 kJ/mol < ΔΔG > −4.184 kJ/mol)	–
1GC1 SC60A	-0.38 kJ	Neutral (neutral (little effect) 4.184 kJ/mol < ΔΔG > −4.184 kJ/mol)	–
1GC1 SC23A	1.21 kJ	Neutral (neutral (little effect) 4.184 kJ/mol < ΔΔG > −4.184 kJ/mol)	–

Molecule	sk_ddG_kJ (PPI given by PDBID)	sk_class	also measured
1DQJ KC97A	–	–	sk_ddG_kJ (complex by PDBID): 14.73 kJ
1DQJ KC96A	–	–	sk_ddG_kJ (complex by PDBID): 25.77 kJ
1DQJ TC89A	–	–	sk_ddG_kJ (SKEMPI experimental ΔΔG) [2]: 3.51 kJ
1GC1 TC17A	-0.54 kJ	Neutral (neutral (little effect) 4.184 kJ/mol < ΔΔG > −4.184 kJ/mol)	–
1GC1 QC40A	-1.72 kJ	Neutral (neutral (little effect) 4.184 kJ/mol < ΔΔG > −4.184 kJ/mol)	–
1VFB VC120A	–	–	sk_class (class of SKEMPI experimental ΔΔG): Neutral (neutral (little effect) 4.184 kJ/mol < ΔΔG > −4.184 kJ/mol)
1DQJ SC100A	–	–	sk_ddG_kJ (SKEMPI experimental ΔΔG) [2]: 3.26 kJ
1DQJ LC75A	–	–	sk_ddG_kJ (SKEMPI experimental ΔΔG) (PPI given by PDBID, sheet sortedByGroup, r_group FAMILYVW): 6.07 kJ
1DQJ RC21A	–	–	sk_ddG_kJ (complex by PDBID): 4.90 kJ
1GC1 QC94A	-0.46 kJ	Neutral (neutral (little effect) 4.184 kJ/mol < ΔΔG > −4.184 kJ/mol)	–
1JRH NI48A (protein, UniProt P15260 18-245, looked up, variant N48A, extracellular domain) extracellular domain: EMGTADLGPSSVPTPTNVTIESYNMNPIVYWEYQIMPQVPVFTVEVKAYGVKNSEWIDACINISHHYCNISDHVGDPSNSLWVRVKARVGQKESAYAKSEEFAVCRDGKIGPPKLDIRKEEKQIMIDIFHPSVFVNGDEQEVDYDPETTCYIRVYNVYVRMNGSEIQYKILTQKEDDCDEIQCQLAIPVSSLNSQYCVSAEGVLHVWGVTTEKSKEVCITIFNSSIKG	2.64 kJ	Neutral (neutral (little effect) 4.184 kJ/mol < ΔΔG > −4.184 kJ/mol)	–
1JRH NI53A (protein, UniProt P15260 18-245, looked up, variant N53A, extracellular domain) extracellular domain: EMGTADLGPSSVPTPTNVTIESYNMNPIVYWEYQIMPQVPVFTVEVKNYGVKASEWIDACINISHHYCNISDHVGDPSNSLWVRVKARVGQKESAYAKSEEFAVCRDGKIGPPKLDIRKEEKQIMIDIFHPSVFVNGDEQEVDYDPETTCYIRVYNVYVRMNGSEIQYKILTQKEDDCDEIQCQLAIPVSSLNSQYCVSAEGVLHVWGVTTEKSKEVCITIFNSSIKG	19.71 kJ	Positive (positive (a hot residue) ΔΔG ≥ 4.184 kJ/mol)	–
1JRH SI54A (protein, UniProt P15260 18-245, looked up, variant S54A, extracellular domain) extracellular domain: EMGTADLGPSSVPTPTNVTIESYNMNPIVYWEYQIMPQVPVFTVEVKNYGVKNAEWIDACINISHHYCNISDHVGDPSNSLWVRVKARVGQKESAYAKSEEFAVCRDGKIGPPKLDIRKEEKQIMIDIFHPSVFVNGDEQEVDYDPETTCYIRVYNVYVRMNGSEIQYKILTQKEDDCDEIQCQLAIPVSSLNSQYCVSAEGVLHVWGVTTEKSKEVCITIFNSSIKG	1.92 kJ	Neutral (neutral (little effect) 4.184 kJ/mol < ΔΔG > −4.184 kJ/mol)	–
1KTZ IB125A (protein, UniProt P37173 23-166, looked up, variant I125A, extracellular domain) extracellular domain: TIPPHVQKSVNNDMIVTDNNGAVKFPQLCKFCDVRFSTCDNQKSCMSNCSITSICEKPQEVCVAVWRKNDENITLETVCHDPKLPYHDFILEDAASPKCIMKEKKKPGETFFMCSCSSDECNDNAIFSEEYNTSNPDLLLVIFQ	–	–	sk_class (class of SKEMPI experimental ΔΔG): Neutral (neutral (little effect) 4.184 kJ/mol < ΔΔG > −4.184 kJ/mol); sk_ddG_kJ (SKEMPI experimental ΔΔG, mutation to alanine) (complex given by PDBID): 2.26 kJ
2PCC VA197A (protein, UniProt P00431 68-361, looked up, variant V197A) Cytochrome c peroxidase, …: TTPLVHVASVEKGRSYEDFQKVYNAIALKLREDDEYDNYIGYGPVLVRLAWHTSGTWDKHDNTGGSYGGTYRFKKEFNDPSNAGLQNGFKFLEPIHKEFPWISSGDLFSLGGVTAVQEMQGPKIPWRCGRVDTPEDTTPDNGRLPDADKDADYVRTFFQRLNMNDREVVALMGAHALGKTHLKNSGYEGPWGAANNAFTNEFYLNLLNEDWKLEKNDANNEQWDSKSGYMMLPTDYSLIQDPKYLSIVKEYANDQDKFFKDFSKAFEKLLENGITFPKDAPSPFIFKTLEEQGL	–	–	sk_class (class of SKEMPI experimental ΔΔG): Positive (positive (a hot residue) ΔΔG ≥ 4.184 kJ/mol); sk_ddG_kJ (SKEMPI experimental ΔΔG, mutation to alanine) (complex given by PDBID): 8.74 kJ
1IAR TA6A (protein, UniProt P05112 25-153, looked up, variant T6A) Interleukin-4: HKCDIALQEIIKTLNSLTEQKTLCTELTVTDIFAASKNTTEKETFCRAATVLRQFYSHHEKDTRCLGATAQQFHRHKQLIRFLKRLDRNLWGLAGLNSCPVKEANQSTLENFLERLKTIMREKYSKCSS	-0.42 kJ	Neutral (neutral (little effect) 4.184 kJ/mol < ΔΔG > −4.184 kJ/mol)	–
1IAR SA16A (protein, UniProt P05112 25-153, looked up, variant S16A) Interleukin-4: HKCDITLQEIIKTLNALTEQKTLCTELTVTDIFAASKNTTEKETFCRAATVLRQFYSHHEKDTRCLGATAQQFHRHKQLIRFLKRLDRNLWGLAGLNSCPVKEANQSTLENFLERLKTIMREKYSKCSS	-0.75 kJ	Neutral (neutral (little effect) 4.184 kJ/mol < ΔΔG > −4.184 kJ/mol)	–
1IAR NA89A (protein, UniProt P05112 25-153, looked up, variant N89A) Interleukin-4: HKCDITLQEIIKTLNSLTEQKTLCTELTVTDIFAASKNTTEKETFCRAATVLRQFYSHHEKDTRCLGATAQQFHRHKQLIRFLKRLDRALWGLAGLNSCPVKEANQSTLENFLERLKTIMREKYSKCSS	6.53 kJ	Positive (positive (a hot residue) ΔΔG ≥ 4.184 kJ/mol)	–
1IAR QA8A (protein, UniProt P05112 25-153, looked up, variant Q8A) Interleukin-4: HKCDITLAEIIKTLNSLTEQKTLCTELTVTDIFAASKNTTEKETFCRAATVLRQFYSHHEKDTRCLGATAQQFHRHKQLIRFLKRLDRNLWGLAGLNSCPVKEANQSTLENFLERLKTIMREKYSKCSS	-0.08 kJ	Neutral (neutral (little effect) 4.184 kJ/mol < ΔΔG > −4.184 kJ/mol)	–
1IAR TA13A (protein, UniProt P05112 25-153, looked up, variant T13A) Interleukin-4: HKCDITLQEIIKALNSLTEQKTLCTELTVTDIFAASKNTTEKETFCRAATVLRQFYSHHEKDTRCLGATAQQFHRHKQLIRFLKRLDRNLWGLAGLNSCPVKEANQSTLENFLERLKTIMREKYSKCSS	4.10 kJ	Neutral (neutral (little effect) 4.184 kJ/mol < ΔΔG > −4.184 kJ/mol)	–
1IAR NA15A (protein, UniProt P05112 25-153, looked up, variant N15A) Interleukin-4: HKCDITLQEIIKTLASLTEQKTLCTELTVTDIFAASKNTTEKETFCRAATVLRQFYSHHEKDTRCLGATAQQFHRHKQLIRFLKRLDRNLWGLAGLNSCPVKEANQSTLENFLERLKTIMREKYSKCSS	-0.13 kJ	Neutral (neutral (little effect) 4.184 kJ/mol < ΔΔG > −4.184 kJ/mol)	–
